Source: the supplement of paper PMC10307832

Assays:
Experiment in all cases: relative viability (nuclei count vs DMSO), 5 days (fraction); higher = more cells survive
[1] = compound: CC1=C(C(=NN1)C)CC2=C(C3=C(S2)N(C(=O)N(C3=O)C)CC(C)C)C(=O)N4C[C@@H](CO4)O + NC(=O)Nc1cc(-c2cccc(F)c2)sc1C(=O)N[C@H]1CCCNC1 [AZD7762] (partner 0.2 µM)
Outline: (§1)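 Relative viability equals treated-well nuclei counts divided by vehicle-well nuclei counts. Counts came from 4× images of lung cancer cell lines grown in 1536-well plates for 5 days after pin-tool dosing on the day after seeding. Dosing used one drug alone or a fixed anchor-drug dose plus five library-drug doses (not always all listed) in √10 steps, and values are medians of duplicate plates.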

[2] = compound: CC1=C(C(=NN1)C)CC2=C(C3=C(S2)N(C(=O)N(C3=O)C)CC(C)C)C(=O)N4C[C@@H](CO4)O + O=C(c1cc(Cc2n[nH]c(=O)c3ccccc23)ccc1F)N1CCN(C(=O)C2CC2)CC1 [Olaparib] (partner 8 µM)
Outline: as §1

[3] = compound: Cc1ccccc1C(C(=O)NC1CCCCC1)N(C(=O)Cn1ccnc1C)c1cccc(F)c1 [IDH-C35] + C[C@@H](Oc1cc(-c2cnn(C3CCNCC3)c2)cnc1N)c1c(Cl)ccc(F)c1Cl [Crizotinib] (partner 1 µM)
Outline: as §1

[4] = compound: Cc1ccccc1C(C(=O)NC1CCCCC1)N(C(=O)Cn1ccnc1C)c1cccc(F)c1 [IDH-C35] + COc1cc2c(Oc3ccc(NC(=O)C4(C(=O)Nc5ccc(F)cc5)CC4)cc3F)ccnc2cc1OCCCN1CCOCC1 [Foretinib] (partner 0.25 µM)
Outline: as §1

Row | Cell Line | relative viability ([1]; first compound 0.0025 µM) | relative viability ([1]; first compound 0.007906 µM) | relative viability ([1]; first compound 0.025 µM) | relative viability ([1]; first compound 0.07906 µM) | relative viability ([1]; first compound 0.25 µM) | relative viability ([2]; first compound 0.0025 µM) | relative viability ([2]; first compound 0.007906 µM) | relative viability ([2]; first compound 0.025 µM) | relative viability ([2]; first compound 0.07906 µM) | relative viability ([2]; first compound 0.25 µM) | relative viability ([3]; first compound 0.08 µM) | relative viability ([3]; first compound 0.253 µM) | relative viability ([3]; first compound 0.8 µM) | relative viability ([3]; first compound 2.53 µM) | relative viability ([3]; first compound 8 µM) | relative viability ([4]; first compound 0.08 µM) | relative viability ([4]; first compound 0.253 µM) | relative viability ([4]; first compound 0.8 µM) | relative viability ([4]; first compound 2.53 µM) | relative viability ([4]; first compound 8 µM)
1 | HCC-44 | 1 | 0.984 | 0.98 | 1.06 | 1.07 | 1.02 | 1 | 0.952 | 0.891 | 1.05 | 0.848 | 0.794 | 0.719 | 0.801 | 0.733 | – | – | – | – | –
2 | HCC-78 | 0.538 | 0.588 | 0.555 | 0.529 | 0.673 | 0.826 | 1 | 0.92 | 0.854 | 0.798 | 0.343 | 0.349 | 0.342 | 0.322 | 0.303 | 0.586 | 0.57 | 0.563 | 0.555 | 0.525
3 | IA-LM | – | – | – | – | – | 0.907 | 1.03 | 0.807 | 0.757 | 0.865 | 0.94 | 0.874 | 0.741 | 0.755 | 0.704 | 1.06 | 1.24 | 1.12 | 1.12 | 1.1
4 | NCI-H520 | – | – | – | – | – | 0.286 | 0.296 | 0.26 | 0.253 | 0.272 | 0.785 | 0.812 | 0.757 | 0.775 | 0.796 | 0.788 | 0.749 | 0.821 | 0.72 | 0.654
5 | NCI-H522 | 0.836 | 1.05 | 0.546 | 0.565 | 0.624 | 0.793 | 0.646 | 0.53 | 0.4 | 0.348 | – | – | – | – | – | – | – | – | – | –
6 | NCI-H661 | – | – | – | – | – | 0.72 | 0.738 | 0.681 | 0.782 | 0.77 | 0.969 | 0.973 | – | 0.975 | 0.971 | 1.03 | 0.964 | 0.981 | 0.988 | 1.03
7 | NCI-H1299 | – | – | – | – | – | 0.986 | 0.991 | 0.975 | 1.01 | 0.988 | 0.97 | 0.953 | 0.981 | 0.923 | 0.93 | 1.1 | 1.07 | 1.01 | 1.06 | 1.09
8 | NCI-H1395 | 0.416 | 0.4 | 0.4 | 0.356 | 0.389 | 0.552 | 0.408 | 0.38 | 0.342 | 0.403 | – | – | – | – | – | 0.972 | 0.976 | 1.07 | 0.896 | 0.971
9 | NCI-H1563 | – | – | – | – | – | – | – | – | – | – | 0.874 | 0.907 | 0.861 | 0.92 | 0.854 | 1.01 | 1.01 | 0.872 | 0.907 | 0.774
10 | NCI-H1623 | – | – | – | – | – | – | – | – | – | – | – | – | – | – | – | 0.91 | 0.854 | 0.811 | 0.896 | 0.861
11 | NCI-H1648 | 0.615 | 0.437 | 0.5 | 0.428 | 0.613 | 0.878 | 0.724 | 0.63 | 0.782 | 0.887 | – | – | – | – | – | – | – | – | – | –
12 | NCI-H1650 | – | – | – | – | – | 0.826 | 0.823 | 0.759 | 0.79 | 0.797 | 0.796 | 0.978 | 0.965 | 0.914 | 0.923 | 1.11 | 1.13 | 1.23 | 0.879 | 1.14
